{
  "source": "patent US10066204B2",
  "about": "“Chemically labile peptide-presenting surfaces for cellular self-assembly” (Wisconsin Alumni Research Foundation, priority 2013, dated 2018)",
  "key": {"hESC (H1)": {"system": "hESC (H1)", "conditions": "for cell adhesion of the hESC monolayer by adhesion ligand on the array spot: FIG. 2B/2C", "protocol": "Gold slides were placed into a 150 mm glass Petri dish, covered with EtOH and sonicated for ˜1 minute using an ultrasonic bath (Bransonic 1510, Branson, Danbury, Conn.). Sonicated gold chips were then rinsed with EtOH and blown dry with N2. […] For spot shape, elastomeric stencils with arrays in the shape of circles, ovals, and oval cross were placed on a bare gold surface to form an array of wells having these shapes on the gold substrate. Wells were then filled with 1 mM ethanolic alkanethiolate solution and incubated for 10 minutes in a chamber containing a laboratory wipe soaked in ethanol to prevent evaporation during local SAM formation. Alkanethiolate solutions were then aspirated and wells were rinsed with DIUF H2O. Carboxylate groups were then converted to active ester groups by adding a solution of 100 mM NHS and 250 mM EDC in DIUF H2O pH 5.5 to wells and incubated for 10 minutes. After an additional rinse with DIUF H2O, 300 μM solutions of […] (SEQ ID NO: 5; commercially available from GenScript, Piscataway, N.J.) or […] (SEQ ID NO: 6; commercially available from GenScript, Piscataway, N.J.) in PBS and pH 7.4 were added to each well and incubated for 1 hour in a humidity controlled chamber to covalently couple peptides to each array spot. After a final rinse in DIUF H2O, regions surrounding array spots were backfilled with HS—C11-EG3-OH. This was accomplished by submerging the gold substrate and attached elastomeric stencil in an aqueous 0.1 mM HS—C11-EG3-OH solution (pH 2.0), removing the stencil, and incubating for 10 minutes. Following backfilling, the array was rinsed with 0.1 wt % SDS in DIUF H2O, DIUF H2O, and EtOH and then dried under a stream of N2. Arrays were stored in sterile DIUF H2O at 4° C. and used within 24 hours.\nPluripotent stem cells were seeded on arrays at a density of 10^5 cells/cm^2. […] Colonies that spontaneously detached from SAM spots were also harvested. Colonies were analyzed for Oct 3/4 and Nanog expression by immunofluorescence using DAPI to stain nuclei.\nThe concentration of the integrin adhesion peptides […] (SEQ ID NO: 1) and cyclic RGD (SEQ ID NO: 4) on the array spot was varied between 2% and 10% by the fraction of COOH groups functionalized with peptides present at the spot among background OH functionalities.\nAfter initial attachment of the cells to the glycosaminoglycan binding peptide […]\nSpecifically, a 1:1 functionalization with cyclic RGD (SEQ ID NO: 4) and […]"}, "[1]": {"system": "hESC monolayers (H1 hESC line)", "conditions": "for effect of soluble peptide on kinetics of aggregate assembly: 0.1 mM soluble peptide in culture media; for change in hESC colony projected area (indicative of aggregate self-assembly): both 5% COOH and 0.5% COOH SAMs", "protocol": "Gold slides were placed into a 150 mm glass Petri dish, covered with EtOH and sonicated for 2 minutes using an ultrasonic bath (Bransonic 1510, Branson, Danbury, Conn.). Sonicated gold chips were then rinsed with EtOH and blown dry with N2. […] Wells were then filled with 1 mM ethanolic alkanethiolate solution and incubated for approximately 10 minutes at room temperature in a chamber containing a laboratory wipe soaked in ethanol to prevent evaporation during local SAM formation. Alkanethiolate solutions were then aspirated and wells were rinsed with DIUF H2O. Carboxylate groups were then converted to active ester groups by adding a solution of 100 mM NHS and 250 mM EDC (in pH 5.5 DIUF H2O) to wells and incubating for 15 minutes. After an additional rinse with DIUF H2O, 300 μM solutions of peptide(s) in pH 7.4 PBS were added to each well and incubated for 1 hour in a humidity-controlled chamber at room temperature to covalently couple peptides to each array spot. After a final rinse in DIUF H2O, regions surrounding array spots were backfilled with HS—C11-EG3-OH. This was accomplished by submerging the gold substrate and attached elastomeric stencil in an aqueous 0.1 mM HS—C11-EG3-OH solution (pH 2.0), removing the stencil, and incubating for 10 minutes. Following backfilling, the array was rinsed with 0.1 wt % SDS in DIUF H2O, DIUF H2O, and EtOH, and then dried under a stream of N2. Arrays were stored away from light in diH2O at room temperature and used within 24 hours.\nPluripotent stem cells (H1 hESC line) were seeded on arrays at a density of approximately 2×10^5 cells/cm^2 to achieve confluent monolayers within 4 hours.\n(§1) Time lapse images were analyzed using edge detection software to track projected area of colonies with respect to initial colony area over time. A t50 of self-assembly was defined as the length of time required for a given patterned cell monolayer to reach 50% of its original 2D projected area, as assessed by automated edge detection. This metric is used throughout this specification to describe differences in the kinetics of aggregate self-assembly between different cell types and in different conditions."}, "hESC monolayers [2]": {"system": "hESC monolayers", "conditions": "5% SAMs", "protocol": "Colonies were analyzed for Oct4 and Nanog expression by immunofluorescence using DAPI to stain nuclei.\nSelf-assembled EBs formed from largely pluripotent 2D hESC populations. hESC monolayers cultured on array spots were stained for pluripotency markers Oct4 and Nanog, as well as DAPI to identify cell nuclei. […] Quantification of positive staining for Oct4 and Nanog, relative to number of cells as quantified by DAPI staining, is shown in FIG. 25B. […] Nanog was expressed by 89% and 93% of hESCs in monolayers at 4 hours and 24 hours, respectively."}, "hMSC monolayers": {"system": "hMSC monolayers", "protocol": "as §1\nhMSCs or hDFs were seeded on arrays at a density of ˜1×10^5 cells/cm^2 to achieve confluent monolayers within 4 hours. Cells were cultured on SAMs in αMEM media containing 10% fetal bovine serum (FBS) for 2 hours after seeding. At this time, SAM arrays were rinsed in basal medium to remove nonspecifically adhered cells and replaced in fresh αMEM+10% FBS.\nIn this Example, the beginning of self-assembly is characterized by the time point at which an evident decrease in projected area of the cell monolayer first occurs. The completion of self-assembly is considered the time point at which no further decreases in monolayer projected area occur, and is marked by the appearance of a plateau in graphical traces of monolayer projected area (see FIG. 28A)."}, "hESC monolayers [3]": {"system": "hESC monolayers", "conditions": "5% SAMs, circular spots of 1.2 mm diameter", "experimental": "Polymer stencils containing arrays of wells were created using soft lithography. Master molds containing arrays of 1.2 mm, 1.8 mm, and 2.4 mm diameter circular posts or oval-shaped or quatrefoil-shaped posts were fabricated from SU-8 (Microchem, Newton, Mass.) spin-coated silicon wafers using conventional photolithography techniques. Polydimethylsiloxane (PDMS) (Sylgard 184, Dow Corning, Midland, Mich.) was prepared by mixing a 10:1 ratio of base:curing agent (w/w) followed by degassing for approximately 45 minutes. The degassed mixture was cast over the mold and cured for 6 hours at 80° C. Following curing, PDMS stencils were removed from molds and cleaned in hexane using overnight Soxhlet extraction."}, "hESCs (H1 line)": {"system": "hESCs (H1 line)", "conditions": "EBs from 5% SAMs, 24 hours post-assembly"}},
  "note": "Read-outs that look alike come from different tables or passages of the source.",
  "data": [
    {"substance": "CGKKQRFRHRNRKG", "values": [
      {"measurement": "cell adhesion of the hESC monolayer by adhesion ligand on the array spot", "setting": "hESC (H1)", "result": "significantly less cell attachment"},
      {"measurement": "time until cells detached after initial attachment", "setting": "hESC (H1); array spots presenting the peptide", "result": "≤ 12", "unit": "h"}
    ]},
    {"substance": "GWGGRGDSP", "values": [
      {"measurement": "cell adhesion of the hESC monolayer by adhesion ligand on the array spot", "setting": "hESC (H1)", "result": "best cell adhesion"}
    ]},
    {"substance": "GWGGRGESP [reference compound]", "values": [
      {"measurement": "cell adhesion of the hESC monolayer by adhesion ligand on the array spot", "setting": "hESC (H1)", "result": "No significant differences"}
    ]},
    {"substance": "KRTGQYKL", "values": [
      {"measurement": "cell adhesion of the hESC monolayer by adhesion ligand on the array spot", "setting": "hESC (H1)", "result": "no significant adhesion"}
    ]},
    {"substance": "cyclo(RADFDK) [reference compound]", "values": [
      {"measurement": "effect of soluble peptide on kinetics of aggregate assembly", "setting": "[1]; hESC on 5% cyclo(RGDFDC) SAMs", "result": "no evident effect"}
    ]},
    {"substance": "cyclo(RGDFDC)", "values": [
      {"measurement": "hESC cell adhesion as a function of adhesion ligand density", "setting": "hESC (H1); 2% COOH fraction compared to 5% COOH, 4 to 48 hours in culture", "result": "significantly lower cell adhesion"},
      {"measurement": "hESC cell adhesion as a function of adhesion ligand density", "setting": "hESC (H1); 10% COOH fraction compared to 5% COOH", "result": "did not lead to an improved attachment"},
      {"measurement": "cell adhesion of the hESC monolayer by adhesion ligand on the array spot", "setting": "hESC (H1)", "result": "best cell adhesion"},
      {"measurement": "effect of soluble peptide on kinetics of aggregate assembly", "setting": "[1]; hESC on 5% cyclo(RGDFDC) SAMs", "result": "most rapid aggregate assembly"},
      {"measurement": "time of forming three-dimensional cellular aggregates floating in suspension", "setting": "[1]; 5% COOH SAMs", "result": "72 to 96", "unit": "h"},
      {"measurement": "effect of soluble peptide on kinetics of aggregate assembly versus control", "setting": "[1]; […] soluble peptide in culture media, hESC on 5% cyclo(RGDFDC) SAMs", "result": "faster aggregate assembly"},
      {"measurement": "change in hESC colony projected area (indicative of aggregate self-assembly)", "setting": "[1]", "result": "evident decreases"},
      {"measurement": "t50 of self-assembly", "setting": "[1]; hESC, 0.01% peptide SAMs", "result": "approximately 14 hours"},
      {"measurement": "t50 of self-assembly", "setting": "[1]; hESC, 0.5% COOH SAMs", "result": "approximately 22 hours"},
      {"measurement": "beginning of the self-assembly process after initial seeding", "setting": "[1]; hESC, 5% COOH SAMs", "result": "40 to 48", "unit": "h"},
      {"measurement": "completion of the self-assembly process after initial seeding", "setting": "[1]; hESC, 5% SAMs", "result": "≤ 72", "unit": "h"},
      {"measurement": "t50 of self-assembly", "setting": "[1]; hESC, 5% peptide SAMs", "result": "approximately 45 hours"},
      {"measurement": "hESCs in monolayers expressing Nanog", "setting": "hESC monolayers [2]; 4 hours after seeding", "result": 89, "unit": "%"},
      {"measurement": "hESCs in monolayers expressing Oct4", "setting": "hESC monolayers [2]; 4 hours after seeding", "result": "greater than 97%"},
      {"measurement": "hESCs in monolayers expressing Nanog", "setting": "hESC monolayers [2]; 24 hours after seeding", "result": 93, "unit": "%"},
      {"measurement": "hESCs in monolayers expressing Oct4", "setting": "hESC monolayers [2]; 24 hours after seeding", "result": 93, "unit": "%"},
      {"measurement": "beginning of self-assembly after initial seeding", "setting": "hMSC monolayers", "result": "≤ 24", "unit": "h"},
      {"measurement": "completion of self-assembly after initial seeding", "setting": "hMSC monolayers", "result": "≤ 36", "unit": "h"},
      {"measurement": "t50 of self-assembly of hMSCs", "setting": "hMSC monolayers", "result": "approximately 30 hours"},
      {"measurement": "time to form self-assembled EBs", "setting": "hESC monolayers [3]", "result": "≤ 72", "unit": "h"},
      {"measurement": "Nanog+ cells dissociated from EBs", "setting": "hESCs (H1 line)", "result": "approximately 91%"},
      {"measurement": "Oct4+ cells dissociated from EBs", "setting": "hESCs (H1 line)", "result": "approximately 99%"}
    ]},
    {"substance": "cyclo(RGDFDK) [reference compound]", "values": [
      {"measurement": "cellular self-assembly behavior of hESC monolayers", "setting": "[1]; 5% COOH SAMs", "result": "no cellular self-assembly behavior"},
      {"measurement": "change in hESC colony projected area (indicative of aggregate self-assembly)", "setting": "[1]", "result": "no such decreases"},
      {"measurement": "detachment of hESC monolayers", "setting": "[1]; over 96 hours", "result": "no observable detachment"}
    ]}
  ]
}
